This note sets out measurements from patent US12121545B2, “Composition for a fecal-derived sterilized postbiotic in anti-aging and neurotherapeutic applications” (priority 2022, dated 2024).

Molecules are shown by their SMILES.

The subject of one test is C. elegans adult animals. Nature of the test: Lifespan of C. elegans adult animals (Kaplan-Meier survival). The format is in vivo.
Another test deals with Caenorhabditis elegans. Nature of the test: Oxidative stress tolerance after paraquat exposure. The test is classed as in vivo. Conditions: 10 mM, positive control; over 24 hours post-exposure; negative control (DMSO) declined 41%. The text has this: Still referring to FIG. 1, composition 100 may be configured to improve oxidative stress tolerance, preserve mitochondrial function, support energy production, enhance cellular defense mechanisms against oxidative stress, stimulate endogenous antioxidants and enzymes, reduce oxidative stress and/or mitochondrial oxidative stress, improve mitochondrial function, improve healthspan, improve longevity, improve autophagy, increase autophagy, or the like. Oxidative stress and healthspan disclosed herein are further described below. For the purposes of this disclosure, “oxidative stress” is a physiological state characterized by an imbalance between the production of reactive oxygen species and the body's antioxidant defenses. In a non-limiting example, reactive oxygen species (ROS) can be generated endogenously as byproducts of cellular metabolism; for instance in the mitochondria. In another non-limiting example, ROS can be generated exogenously in the result of environmental pollutants, radiation, cigarette smoking, alcohol, certain foods, and drugs. In a healthy human, the body's antioxidant defenses can neutralize these molecules before they cause significant cellular damage. However, when their production overwhelms the body's capacity to neutralize and eliminate them, they can cause widespread cellular damage. […]

Where [1] appears, read: 50 μM, * p<0.05 vs negative control.
Where [2] appears, read: 100 μM, * p<0.05 vs negative control.

Protocol for C. elegans adult animals: In a embodiments, organisms may include a vehicle control 204. In an embodiment, organisms may be treated with at least 0.05 mg/ml 208 of composition 100 and compared to a “vehicle control,” which as used in this disclosure, may include organisms not treated with composition 100. Lifespan data was represented as the percent of organism surviving over time, known as the Kaplan-Meier Estimate of Survival function.
Chart 212 illustrates the impact of resveratrol 216 at 100 μM; and rapamycin 220 at 50 μM; composition 100 at 0.05 mg/ml 208, 0.25 mg/ml 224, and 1.25 mg/ml 228; resveratrol at 100 μM; and rapamycin at 50 μM. In another non-limiting example, subjects, for instance, C. elegans, may be divided into five groups, with each group receiving a different concentration of composition (0.05 mg/mL 208, 0.25 mg/mL 224, or 1.25 mg/mL 228), vitamin C as a positive control (10 mM), or dimethyl sulfoxide (DMSO) as a negative control (0.05% DMSO).

As to `CO[C@H]1C[C@@H]2CC[C@@H](C)[C@@](O)(O2)C(=O)C(=O)N2CCCC[C@H]2C(=O)O[C@H]([C@H](C)C[C@@H]2CC[C@@H](O)[C@H](OC)C2)CC(=O)[C@H](C)/C=C(\C)[C@@H](O)[C@@H](OC)C(=O)[C@H](C)C[C@H](C)/C=C/C=C/C=C/1C` [Rapamycin, rapamycin], in the test on C. elegans adult animals (setting [1]), the “age at 25% Mortality” value is 24.6* days, the “age at 50% Mortality (median lifespan)” value is listed as 29.5* days, the “age at 75% Mortality” value was 32.8* days and the “age at 90% Mortality” value is listed as 35.7* days. In addition, in the test on C. elegans adult animals (setting [1]), the “age at 95% Mortality” value is recorded as 36.1* days.
In the case of `Oc1ccc(C=Cc2cc(O)cc(O)c2)cc1` [Resveratrol, resveratrol], the “age at 90% Mortality” value in the test on C. elegans adult animals (100 μM) is listed as 30.2 days. In the test on C. elegans adult animals (setting [2]), the “age at 25% Mortality” value was 22.4* days, the “age at 50% Mortality (median lifespan)” value is 25.5* days, the “age at 75% Mortality” value is given as 28.3* days and the “age at 95% Mortality” value is reported as 32.3* days.
As to `O=C1O[C@H]([C@@H](O)CO)C(O)=C1O` [vitamin C], the “average decline after paraquat-induced oxidative stress” value in the test on Caenorhabditis elegans is on record as 25%.
